Laboratory results taken from patent US20170096492A1, “DOSAGE AND ADMINISTRATION OF ANTI-IGF-1R, ANTI-ErbB3 BISPECIFIC ANTIBODIES, USES THEREOF AND METHODS OF TREATMENT [sequence]” (Merrimack Pharmaceuticals, Inc., priority 2014, published 2017).
“Also recorded” adds a separate entry of the source.

Key:
[1] = system: HepG2 hepatocellular carcinoma cells; experiment: HepG2 western blot, sorafenib with or without MM-141; type: cell-based; conditions: sorafenib 5 μM, 2 hours
Procedure: HepG2 cells were plated on 12 well dishes (3×10^5 cells per well) in 10% serum-containing media and incubated overnight. […] Following treatment, cells were harvested in lysis buffer containing protease and phosphatase inhibitors and analyzed by western blotting.

[2] = system: CFPAC-1 pancreatic cancer cells; experiment: pAKT (Ser473) ELISA after chemotherapy and ligand stimulation; type: cell-based, human; conditions: then HRG 5 nM or IGF-1 50 nM 15 minutes
Procedure: (§1) CFPAC-1 pancreatic cancer cells were seeded at 65% confluence in 10% serum-containing medium on 96-well plates overnight. […] Following incubation, cells were treated with (FIG. 24A) HRG (5 nM) or (FIG. 24B) IGF-1 (50 nM) for 15 minutes, where indicated. After treatment, cells were harvested and protein lysates generated. Changes in pAKT (Ser473) levels across all treatments were evaluated by pAKT ELISA, respectively. FIGS. 24(A-B) are bar graphs showing pAKT levels relative to ligand alone stimulated signals, which were normalized to 1.
as §1, with “25A)” for “24A)”, “25B)” for “24B)”, “25(A-B)” for “24(A-B)”

[3] = system: CFPAC-1 human pancreatic cancer cells; experiment: HRG mRNA expression by real time PCR; type: cell-based; conditions: 24 hours
Procedure: CFPAC-1 human pancreatic cancer cells were serum-starved by plating the cells in 2% serum-containing medium overnight, followed by treatment with vehicle, 500 nM gemcitabine, or 50 nM paclitaxel for 24 hours. Post-treatment, cell lysates were harvested, mRNA extracted, cDNA generated and changes in HRG mRNA expression evaluated by real time PCR. Bar graphs represent mean HRG mRNA expression relative to the geometric mean of three housekeeping genes (protein phosphatase 2 catalytic subunit alpha (PPP2CA), ribosomal protein L4 (RPL4), and glucuronidase beta (GUSB)), normalized to vehicle control.

[4] = system: BxPC-3 derived xenograft tumors; experiment: BxPC-3 xenograft PD, western blot; type: in vivo, mice; conditions: gemcitabine 150 mpk i.p. Day 0, 6; tumors harvested Day 7
Source text: (§2) For the PD studies described in FIGS. 6A-B and FIGS. 9 A-B, nu/nu female mice were inoculated with 8×10^6 DU145 or 5×10^6 BxPC-3 cells, respectively, in 1:1 Matrigel® suspension. […] Tumor lysates were generated and subjected to western blot analysis.

[5] = system: CAKI-1 xenografts; experiment: CAKI-1 xenograft PD, western blot; type: in vivo, mice; conditions: single agent; MM-141 30 mpk i.p. or everolimus 10 mpk orally, 2 doses; tumors harvested 24 hours after second dose
Procedure: For the PD study results shown in FIGS. 3A-B and FIGS. 5A-C, NOD/SCID female mice were inoculated with 12×10^6 CAKI-1 or 10×10^6 SK-ES-1 cells, respectively, in 1:1 Matrigel® suspension. […] Tumors were harvested 24 hours after the second dose of drug; lysates were generated and subjected to western blot analysis.

[6] = system: DU145 prostate cancer-derived xenograft tumors; experiment: DU145 xenograft PD, western blot; type: in vivo, mice; conditions: docetaxel 20 mpk i.p. single dose, tumors harvested Day 4
Source text: as §2

[7] = target: mTOR (Homo sapiens, UniProt P42345); conditions: cited from earlier work

## CNC(=O)c1cc(Oc2ccc(NC(=O)Nc3ccc(Cl)c(C(F)(F)F)c3)cc2)ccn1 [sorafenib, Sorafenib]
[1]
  ErbB3 level: up-regulated; also recorded: upregulation of ErbB3 activity
  pAKT level: up-regulated

## CC(=O)O[C@H]1C(=O)[C@@]2(C)[C@H]([C@H](OC(=O)c3ccccc3)[C@]3(O)C[C@H](OC(=O)[C@H](O)[C@@H](NC(=O)c4ccccc4)c4ccccc4)C(C)=C1C3(C)C)[C@]1(OC(C)=O)CO[C@@H]1C[C@@H]2O [paclitaxel, Paclitaxel, reference compound]
[2]; paclitaxel 100 nM 24 hours
  sensitivity to ligands, pAKT (Ser473): increased sensitivity to IGF-1
[3]; 50 nM paclitaxel
  HRG mRNA relative to vehicle control: at least doubles

## Nc1ccn([C@@H]2O[C@H](CO)[C@@H](O)C2(F)F)c(=O)n1 [gemcitabine, Gemcitabine]
[2]; gemcitabine 1 μM 24 hours
  sensitivity to ligands, pAKT (Ser473): increased sensitivity to HRG and IGF-1
[4]
  total ErbB3: up-regulation and activation
  total IGF-1R: up-regulation and activation
[3]; 500 nM gemcitabine
  HRG mRNA increase relative to vehicle control: about 22 fold

## CO[C@H]1C[C@@H]2CC[C@@H](C)[C@@](O)(O2)C(=O)C(=O)N2CCCC[C@H]2C(=O)O[C@H]([C@H](C)C[C@@H]2CC[C@@H](OCCO)[C@H](OC)C2)CC(=O)[C@H](C)/C=C(\C)[C@@H](O)[C@@H](OC)C(=O)[C@H](C)C[C@H](C)/C=C/C=C/C=C/1C [everolimus, Everolimus, reference compound]
[5]
  total ErbB2: upregulation
  total IGF-1R: upregulation

## CC(=O)O[C@@]12CO[C@@H]1C[C@H](O)[C@@]1(C)C(=O)[C@H](O)C3=C(C)[C@@H](OC(=O)[C@H](O)[C@@H](NC(=O)OC(C)(C)C)c4ccccc4)C[C@@](O)([C@@H](OC(=O)c4ccccc4)[C@H]21)C3(C)C [docetaxel, Docetaxel]
[6]
  ErbB3 protein expression level: up-regulated
  IGF-1R protein expression level: up-regulated

## COc1ccc(-c2ccc3c(N4CCOC[C@@H]4C)nc(N4CCOC[C@@H]4C)nc3n2)cc1CO [AZD8055]
[7]
  selectivity against PI3K isoforms and ATM/DNA-PK: ~1,000 fold
